Reference: US20190151312A1, “HEPARAN SULFATE BIOSYNTHESIS INHIBITORS FOR THE TREATMENT OF DISEASES” (BioMarin Pharmaceutical Inc., priority 2014, published 2019)

System: GM01896 cells (MPS II dermal fibroblasts)
Assay: Assay 1: MPS cellular assay, MPS II (heparan sulfate disaccharide biomarkers by LC-MS)
Format: cell-based, human
Conditions: Assay 1 for MPS II, heparan sulfate disaccharide biomarkers (I2a4, I2a6, I2S0 and/or I2S6), read-out: IC50 Range
Outline: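 MPS II patient dermal fibroblasts (GM01896) treated with compound at ≤30 μM for 4 to 21 days. Heparan sulfate GAGs isolated by anion exchange, digested with heparinases I-III, aniline-tagged against [13C6]aniline standards and quantified by LC-MS; IC50 from curve fitting. Viability monitored by alamar blue or ATP.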

`CN(C)CCn1cnc2ccc(-c3cc(Nc4ccc(Cl)cc4)nc(N4CCOCC4)n3)cc21` [[2-(6-{6-[(4-chlorophenyl)amino]-2-morpholin-4-ylpyrimidin-4-yl}benzimidazolyl)ethyl]dimethylamine] and `CN(C)CCCn1cnc2cc(-c3cc(Nc4ccc(Cl)cc4)nc(N4CCOCC4)n3)ccc21` [[3-(5-{6-[(4-chlorophenyl)amino]-2-morpholin-4-ylpyrimidin-4-yl}benzimidazolyl)propyl]dimethylamine] fall in the same range of IC50: 500 to 1000 nM for the first, 500 to 1000 nM for the second.

Compared with `Cc1nn(C)c2cc(-c3cc(Nc4ccc(-n5cccn5)cc4)nc(N4CCOCC4)n3)ccc12` [[6-(1,3-dimethyl(1H-indazol-6-yl))-2-morpholin-4-ylpyrimidin-4-yl](4-pyrazolylphenyl)amine], `Cc1nn(C)c2cc(-c3cc(Nc4ccc5nn(C)nc5c4)nc(N4CCOCC4)n3)ccc12` [[6-(1,3-dimethyl(1H-indazol-6-yl))-2-morpholin-4-ylpyrimidin-4-yl](2-methyl(2-hydrobenzotriazol-5-yl))amine] is higher in IC50: < 500 nM for the first, 1000 to 5000 nM for the second. The first is the more potent here.

For `CN(C)C(=O)c1ccc(Nc2cc(-c3ccc4cnn(C)c4c3)nc(N3CCOCC3)n2)cc1` [N,N-dimethyl(4-{[6-(1-methyl(1H-indazol-6-yl))-2-morphlin-4-ylpyrimidin-4-yl]amino}phenyl)carboxamide], the IC50 was 500 to 1000 nM.

Same assay, conditions: Homo sapiens, Fibroblast, Assay 1 for MPS II, heparan sulfate disaccharide biomarkers (I2a4, I2a6, I2S0 and/or I2S6), read-out: IC50 Range

Compared with `Cc1nn(C)c2cc(-c3cc(Nc4ccc(-c5ccc[nH]5)cc4)nc(N4CCOCC4)n3)ccc12` [[6-(1,3-dimethyl(1H-indazol-6-yl))-2-morpholin-4-ylpyrimidin-4-yl](4-pyrrol-2-ylphenyl)amine], `Cc1nn(C)c2cc(-c3cc(Nc4ccc(-c5ncco5)cc4)nc(N4CCOCC4)n3)ccc12` [[6-(1,3-dimethyl(1H-indazol-6-yl))-2-morpholin-4-ylpyrimidin-4-yl](4-(1,3-oxazol-2-yl)phenyl)amine] is higher in IC50: < 500 nM for the first, 500 to 1000 nM for the second. The first is the more potent here.

`Cc1nc2ccc(-c3cc(Nc4ccc(Cl)cc4)nc(N4CCOCC4)n3)cc2n1CCCN1CCOCC1` [(4-chlorophenyl){6-[2-methyl-1-(3-morpholin-4-ylpropyl)benzimidazol-6-yl]-2-morpholin-4-ylpyrimidin-4-yl}amine] and `Clc1ccc(Nc2cc(-c3ccc4c(cnn4CCCN4CCOCC4)c3)nc(N3CCOCC3)n2)cc1` [(4-chlorophenyl){2-morpholin-4-yl-6-[1-(3-morpholin-4-ylpropyl)(1H-indazol-5-yl)]pyrimidin-4-yl}amine] fall in the same range of IC50: 1000 to 5000 nM for the first, 1000 to 5000 nM for the second.

`Clc1ccc(Nc2cc(-c3ccc4c(c3)ncn4C3COC3)nc(N3CCOCC3)n2)cc1` [(4-chlorophenyl)[2-morpholin-4-yl-6-(1-oxetan-3-ylbenzimidazol-5-yl)pyrimidin-4-yl]amine] and `Cn1cnc2cc(-c3cc(Nc4ccc(Cl)cc4)nc(N4CCOCC4)n3)ccc21` [(4-chlorophenyl)[6-(1-methylbenzimidazol-5-yl)-2-morpholin-4-ylpyrimidin-4-yl]amine] fall in the same range of IC50: 500 to 1000 nM for the first, 500 to 1000 nM for the second.

`Cn1nc(NCCCN2CCOCC2)c2ccc(-c3cc(Nc4ccc(Cl)cc4)nc(N4CCOCC4)n3)cc21` [(4-chlorophenyl)(6-{1-methyl-3-[(3-morpholin-4-ylpropyl)amino](1H-indazol-6-yl)}-2-morpholin-4-ylpyrimidin-4-yl)amine] and `Cn1nc(CCN2CCOCC2)c2ccc(-c3cc(Nc4ccc(Cl)cc4)nc(N4CCOCC4)n3)cc21` [(4-chlorophenyl){6-[1-methyl-3-(2-morpholin-4-ylethyl)(1H-indazol-6-yl)]-2-morpholin-4-ylpyrimidin-4-yl}amine] fall in the same range of IC50: 500 to 1000 nM for the first, 500 to 1000 nM for the second.

First: Clc1ccc(Nc2cc(-c3ccc4ncn(CCCN5CCCC5)c4c3)nc(N3CCOCC3)n2)cc1 [(4-chlorophenyl){2-morpholin-4-yl-6-[1-(3-pyrrolidinylpropyl)benzimidazol-6-yl]pyrimidin-4-yl}amine]
Second: Cn1nc(CN2CCOCC2)c2ccc(-c3cc(Nc4ccc(Cl)cc4)nc(N4CCOCC4)n3)cc21 [(4-chlorophenyl){6-[1-methyl-3-(morpholin-4-ylmethyl)(1H-indazol-6-yl)]-2-morpholin-4-ylpyrimidin-4-yl}amine]
The IC50 of the first is lower: 500 to 1000 nM for the first, 1000 to 5000 nM for the second.

`Cn1ncc2ccc(-c3cc(Nc4ccc5cc[nH]c5c4)nc(N4CCOCC4)n3)cc21` [indol-6-yl[6-(1-methyl(1H-indazol-6-yl))-2-morpholin-4-ylpyrimidin-4-yl]amine] and `Cn1ncc2ccc(-c3cc(Nc4ccc5cn[nH]c5c4)nc(N4CCOCC4)n3)cc21` [1H-indazol-6-yl[6-(1-methyl(1H-indazol-6-yl))-2-morpholin-4-ylpyrimidin-4-yl]amine] fall in the same range of IC50: 1000 to 5000 nM for the first, 1000 to 5000 nM for the second.

`Cn1ncc2ccc(-c3cc(Nc4ccc(S(C)(=O)=O)cc4)nc(N4CCOCC4)n3)cc21` [1-{[6-(1-methyl(1H-indazol-6-yl))-2-morpholin-4-ylpyrimidin-4-yl]amino}-4-(methylsulfonyl)benzene] and `Cc1ccc(Nc2cc(-c3ccc4c(cnn4C)c3)nc(N3CCOCC3)n2)cc1` [[6-(1-methyl(1H-indazol-5-yl))-2-morpholin-4-ylpyrimidin-4-yl](4-methylphenyl)amine] fall in the same range of IC50: 1000 to 5000 nM for the first, 1000 to 5000 nM for the second.

Compared with `CNC(=O)c1ccc(Nc2cc(-c3ccc4ncn(C)c4c3)nc(N3CCOCC3)n2)cn1` [N-methyl(5-{[6-(1-methylbenzimidazol-6-yl)-2-morpholin-4-ylpyrimidin-4-yl]amino}(2-pyridyl))carboxamide], `Cn1cnc2ccc(-c3cc(Nc4ccc(C(=O)NC5CC5)cc4)nc(N4CCOCC4)n3)cc21` [N-cyclopropyl(4-{[6-(1-methylbenzimidazol-6-yl)-2-morpholin-4-ylpyrimidin-4-yl]amino}phenyl)carboxamide] is higher in IC50: 500 to 1000 nM for the first, 1000 to 5000 nM for the second.

First: Cn1cnc2ccc(-c3cc(Nc4ccc(NC(=O)OC(C)(C)C)cc4)nc(N4CCOCC4)n3)cc21 [(tert-butoxy)-N-(4-{[6-(1-methylbenzimidazol-6-yl)-2-morpholin-4-ylpyrimidin-4-yl]amino}phenyl)carboxamide]
Second: Cc1nc2ccc(-c3cc(Nc4ccc(Cl)cc4)nc(N4CCOCC4)n3)cc2n1C [[6-(1,2-dimethylbenzimidazol-6-yl)-2-morpholin-4-ylpyrimidin-4-yl](4-chlorophenyl)amine]
The IC50 of the first is higher: 1000 to 5000 nM for the first, 500 to 1000 nM for the second.

`Clc1ccc(Nc2cc(-c3cccc4[nH]cnc34)nc(N3CCOCC3)n2)cc1` [6-(1H-benzo[d]imidazol-4-yl)-N-(4-chlorophenyl)-2-morpholinopyrimidin-4-amine] and `Cc1nc2ccc(-c3cc(Nc4ccc(Cl)cc4)nc(N4CCOCC4)n3)cc2n1C1CC1` [(4-chlorophenyl)[6-(1-cyclopropyl-2-methylbenzimidazol-6-yl)-2-morpholin-4-ylpyrimidin-4-yl]amine] fall in the same range of IC50: 500 to 1000 nM for the first, 500 to 1000 nM for the second.

`CN(C)CCn1cc2ccc(-c3cc(Nc4ccc(Cl)cc4)nc(N4CCOCC4)n3)cc2n1` [[2-(6-{6-[(4-chlorophenyl)amino]-2-morpholin-4-ylpyrimidin-4-yl}(2H-indazol-2-yl))ethyl]dimethylamine] and `Cn1nc(CCCO)c2ccc(-c3cc(Nc4ccc(Cl)cc4)nc(N4CCOCC4)n3)cc21` [3-(6-{6-[(4-chlorophenyl)amino]-2-morpholin-4-ylpyrimidin-4-yl}-1-methyl-1H-indazol-3-yl)propan-1-ol] fall in the same range of IC50: 500 to 1000 nM for the first, 500 to 1000 nM for the second.

First: Cc1nn(C)c2cc(-c3cc(Nc4ccc5cc(C)n(C)c5c4)nc(N4CCOCC4)n3)ccc12 [[6-(1,3-dimethyl(1H-indazol-6-yl))-2-morpholin-4-ylpyrimidin-4-yl](1,2-dimethylindol-6-yl)amine]
Second: Cn1ccc2ccc(Nc3cc(-c4ccc5c(CCCN)nn(C)c5c4)nc(N4CCOCC4)n3)cc21 [{6-[3-(3-aminopropyl)-1-methyl(1H-indazol-6-yl)]-2-morpholin-4-ylpyrimidin-4-yl}(1-methylindol-6-yl)amine]
The IC50 of the first is higher: 500 to 1000 nM for the first, < 500 nM for the second. The second is the more potent here.

Compared with `Cn1nc(CCCCO)c2ccc(-c3cc(Nc4ccc(Cl)cc4)nc(N4CCOCC4)n3)cc21` [4-(6-{6-[(4-chlorophenyl)amino]-2-morpholin-4-ylpyrimidin-4-yl}-1-methyl-1H-indazol-3-yl)butan-1-ol], `Cn1nc(CCN2CCOCC2)c2cc(F)c(-c3cc(Nc4ccc(Cl)cc4)nc(N4CCOCC4)n3)cc21` [(4-chlorophenyl){6-[5-fluoro-1-methyl-3-(2-morpholin-4-ylethyl)(1H-indazol-6-yl)]-2-morpholin-4-ylpyrimidin-4-yl}amine] is lower in IC50: 1000 to 5000 nM for the first, 500 to 1000 nM for the second.

Compared with `Cn1nc(CCN2CCOCC2)c2ccc(-c3cc(Nc4ccc(-c5cocn5)cc4)nc(N4CCOCC4)n3)cc21` [{6-[1-methyl-3-(2-morpholin-4-ylethyl)(1H-indazol-6-yl)]-2-morpholin-4-ylpyrimidin-4-yl}(4-(1,3-oxazol-4-yl)phenyl)amine], `CNC(=O)c1ccc(Nc2cc(-c3ccc4c(cnn4CCN4CCOCC4)c3)nc(N3CCOCC3)n2)cc1` [N-methyl[4-({2-morpholin-4-yl-6-[1-(2-morpholin-4-ylethyl)(1H-indazol-5-yl)]pyrimidin-4-yl}amino)phenyl]carboxamide] is higher in IC50: < 500 nM for the first, 500 to 1000 nM for the second.

First: Cn1ncc2cc(Nc3cc(-c4ccc5cnn(C)c5c4)nc(N4CCOCC4)n3)ccc21 [(1-methyl(1H-indazol-5-yl))[6-(1-methyl(1H-indazol-6-yl))-2-morpholin-4-ylpyrimidin-4-yl]amine]
Second: Cc1nncn1-c1ccc(Nc2cc(-c3ccc4cnn(C)c4c3)nc(N3CCOCC3)n2)cc1 [[4-(3-methyl(1,2,4-triazol-4-yl))phenyl][6-(1-methyl(1H-indazol-6-yl))-2-morpholin-4-ylpyrimidin-4-yl]amine]
The IC50 of the first is higher: 1000 to 5000 nM for the first, 500 to 1000 nM for the second. The second is the more potent here.

First: Cc1nn(C)c2cc(-c3cc(Nc4ccc(-c5nnc(C(F)(F)F)[nH]5)cc4)nc(N4CCOCC4)n3)ccc12 [[6-(1,3-dimethyl(1H-indazol-6-yl))-2-morpholin-4-ylpyrimidin-4-yl]{4-[5-(trifluoromethyl)(4H-1,2,4-triazol-3-yl)]phenyl}amine]
Second: CNC(=O)c1ccc(Nc2cc(-c3ccc4cnn(C5CCC5)c4c3)nc(N3CCOCC3)n2)cc1 [(4-{[6-(1-cyclobutyl(1H-indazol-6-yl))-2-morpholin-4-ylpyrimidin-4-yl]amino}phenyl)-N-methylcarboxamide]
The IC50 of the first is higher: 1000 to 5000 nM for the first, < 500 nM for the second. The second is the more potent here.
